{
  "source": "patent US10329542B2",
  "about": "“HBV RNAse H purification and enzyme inhibitors” (Saint Louis University, priority 2012, dated 2019)",
  "data": [
    {"molecular_target": "T1, HBV genotype D RNAseH (HRHPL) (Hepatitis B virus genotype D subtype ayw, UniProt P03156, INS679M)", "T1 construct": "HRHPL contains HBV genotype D (Genbank V01460) polymerase residues 684-845; made in house; host or cells: E. coli BL21 codon+", "T1 sequence (P03156 680-832, added parts left off, stated change not applied)": "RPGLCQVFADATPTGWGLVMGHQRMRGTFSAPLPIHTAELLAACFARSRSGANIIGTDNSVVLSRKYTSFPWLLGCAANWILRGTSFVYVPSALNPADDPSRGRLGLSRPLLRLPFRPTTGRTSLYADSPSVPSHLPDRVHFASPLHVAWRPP", "assay": "Oligonucleotide-directed RNAseH cleavage assay, HBV genotype D", "format": "biochemical", "conditions": "class by concentration giving inhibition (10, 20, 60 μM)", "description": "(§1) For the oligonucleotide-directed RNAseH cleavage assay (Gong et al., 2001), 6 μl protein extract (typical protein concentration 2.8 mg/ml) was mixed with 0.5 μg internally ^32P-labeled DRF+ RNA (nucleotides 2401-2605 of the duck HBV genome plus 60 nucleotides of flanking sequences from pBluescript) and 3 μg oligonucleotide D2507- or its corresponding negative control D2526+ on ice in 20 μl under the conditions in Table 1. Some reactions in FIG. 5 employed oligonucleotide D2543M-Sal or its D2453+ negative control as indicated. The reactions were incubated at 42° C. for 90 min. and terminated by addition of Laemmli protein loading buffer and boiling. The samples were resolved by 12% SDS-PAGE, the gels were stained with Coomassie blue to monitor protein loading, and labeled RNA was detected by autoradiography. Candidate inhibitors were dissolved in DMSO and added at the indicated concentrations during assembly of the reactions. Control reactions lacking the compounds contained DMSO as a vehicle control. The RNAseH autoradiograms were scanned and quantified with ImageJ.\n(§2) Oligonucleotide-directed RNAseH cleavage assays (Gong et al., 2001) were performed as described (Tavis et al., 2013). Briefly, HBV RNAseH extracts were mixed with a 264 nt-long internally ^32P-labeled RNA plus an excess of a complementary DNA oligonucleotide or its inverse-complement as a negative control in a final concentration of 65 mM Tris pH 8.0, 190 mM NaCl, 5 mM MgCl2, 5 mM dTT, 0.05% NP40, and 6% glycerol. βTJ was dissolved in DMSO and added at the indicated concentrations; the final concentration of DMSO in all reactions was 1%. The reactions were incubated at 42° C. for 90 min. and terminated by addition of Laemmli protein electrophoresis buffer. The samples were resolved by SDS-PAGE, labeled RNA was detected by autoradiography, the autoradiograms were scanned, and the RNA cleavage products were quantified with ImageJ (National Institutes of Health). IC50 values were calculated by non-linear regression using GraphPad Prism (GraphPad Software, Inc.).", "values": [
      {"compound": "Cc1cc(C(F)(F)F)c(C#N)c(=O)[nH]1", "note": "[Compound 19]", "Activity vs. HBV Biochemical vs. gtD": "− (− no inhibition at 60 μM)"},
      {"compound": "N#Cc1cc2ccccc2oc1=N", "note": "[Compound 21]", "Activity vs. HBV Biochemical vs. gtD": "− (− no inhibition at 60 μM)"},
      {"compound": "CCOC(=O)c1sc(NC(=O)CSc2nnc(-c3ccc(Cl)cc3)o2)c(C#N)c1C", "note": "[Compound 24]", "Activity vs. HBV Biochemical vs. gtD": "− (− no inhibition at 60 μM)"},
      {"compound": "N#Cc1c(NC(=O)CSc2nnc(Cc3ccccc3)o2)sc2c1CCCC2", "note": "[Compound 25]", "Activity vs. HBV Biochemical vs. gtD": "− (− no inhibition at 60 μM)"},
      {"compound": "CCOC(=O)c1sc(NC(=O)CSc2nc(C)cc(-c3ccccc3)n2)c(C#N)c1C", "note": "[Compound 26]", "Activity vs. HBV Biochemical vs. gtD": "− (− no inhibition at 60 μM)"},
      {"compound": "CCOC(=O)c1sc(NC(=O)CSc2nccc(C)n2)c(C#N)c1C", "note": "[Compound 27]", "Activity vs. HBV Biochemical vs. gtD": "− (− no inhibition at 60 μM)"},
      {"compound": "N#Cc1c(NC(=O)CSc2nnc(C3CC3)o2)sc2c1CCC2", "note": "[Compound 32]", "Activity vs. HBV Biochemical vs. gtD": "− (− no inhibition at 60 μM)"},
      {"compound": "Cc1ccc2oc(=O)c(C#N)c(C)c2c1", "note": "[Compound 33]", "Activity vs. HBV Biochemical vs. gtD": "− (− no inhibition at 60 μM)"},
      {"compound": "CCOC(=O)c1sc(NC(=O)CSc2ccc(Cl)cc2)c(C#N)c1C", "note": "[Compound 37]", "Activity vs. HBV Biochemical vs. gtD": "− (− no inhibition at 60 μM)"},
      {"compound": "O=C(Oc1cccccc1=O)c1ccc([N+](=O)[O-])cc1", "note": "[Compound 51, tropolone p-nitrobenzoate]", "Activity vs. HBV Biochemical vs. gtD": "+ (+ inhibition at 60 μM)"},
      {"compound": "O=c1ccccc(Br)c1O", "note": "[Compound 54, 3-bromotropolone]", "Activity vs. HBV Biochemical vs. gtD": "− (− no inhibition at 60 μM)"},
      {"compound": "O=c1cccccc1Cl", "note": "[Compound 57, 2-chlorotropone]", "Activity vs. HBV Biochemical vs. gtD": "− (− no inhibition at 60 μM)"},
      {"compound": "O=C(Oc1cccccc1=O)c1ccccc1", "note": "[Compound 62]", "Activity vs. HBV Biochemical vs. gtD": "+ (+ inhibition at 60 μM)"},
      {"compound": "O=C(Oc1cccccc1=O)c1ccc(Cl)cc1", "note": "[Compound 63]", "Activity vs. HBV Biochemical vs. gtD": "− (− no inhibition at 60 μM)"},
      {"compound": "CCn1cc(C(=O)O)c(=O)c2cc3c(cc21)OCO3", "note": "[Compound 65]", "Activity vs. HBV Biochemical vs. gtD": "− (− no inhibition at 60 μM)"},
      {"compound": "O=C(O)c1cn(C2CC2)c2cc(Cl)c(F)cc2c1=O", "note": "[Compound 66]", "Activity vs. HBV Biochemical vs. gtD": "− (− no inhibition at 60 μM)"},
      {"compound": "CC1COc2c(N3CCN(C)CC3)c(F)cc3c(=O)c(C(=O)O)cn1c23", "note": "(stereo not drawn) [Compound 68]", "Activity vs. HBV Biochemical vs. gtD": "− (− no inhibition at 60 μM)"},
      {"compound": "CCn1cc(C(=O)O)c(=O)c2ccc(C)nc21", "note": "[Compound 70]", "Activity vs. HBV Biochemical vs. gtD": "− (− no inhibition at 60 μM)"},
      {"compound": "CCN1C[C@H](C)n2c(c(O)c3c(=O)n(Cc4ccc(F)c(Cl)c4)nc(C(=O)NC)c32)C1=O", "note": "[Compound 74, reference compound]", "Activity vs. HBV Biochemical vs. gtD": "− (− no inhibition at 60 μM)"},
      {"compound": "Cn1c(C(C)(C)N)nc(C(=O)NCc2ccc(F)cc2)c(O)c1=O", "note": "[Compound 77, reference compound]", "Activity vs. HBV Biochemical vs. gtD": "− (− no inhibition at 60 μM)"}
    ]},
    {"molecular_target": "T1, HBV genotype D RNAseH (HRHPL)", "assay": "Oligonucleotide-directed RNAseH cleavage assay, HBV genotype D", "format": "biochemical", "conditions": "irrelevant compounds at 10 μM, pooled", "description": "as §1, §2", "units": {"RNAseH activity of HRHPL relative to the DMSO vehicle control": "%"}, "values": [
      {"compound": "CC(C)S[C@@H]1O[C@H](CO)[C@H](O)[C@H](O)[C@H]1O", "note": "[IPTG, reference compound]", "RNAseH activity of HRHPL relative to the DMSO vehicle control": "52±9"}
    ]}
  ]
}
